Data on 9 compounds can be found in US10201610B2, “Interference peptides and use thereof” (The University of Western Australia, priority 2014, dated 2019).

Read-outs that look alike come from different tables or passages of the source. Ends that are not written are not given here.

The subject of experiment [1] is panel of breast cancer cell lines. Description: Cell Titer Glo cell viability assay, whole panel of breast cancer cell lines. The format is cell-based. The following applies: maximum tested concentrations (100 μM), 8 hours. On the procedure: To test the specificity of the EN1-iPep in cell lines expressing EN1, the inventors delivered the iPeps into a panel of breast cancer cell lines expressing different amounts of EN1.
(§1) All peptides were synthetized at the UNC High-Throughput Peptide Synthesis and Array Facility at UNC. Taxol, Rotenone and Halofuginone (Sigma-Aldrich, St Louis, Mo.) were dissolved in DMSO. A total of […] or 1×10^3 breast cells for peptide and drug treatment respectively, were seeded in 96-well plates. Cells were exposed for 8 hours to the peptide and 48 to 72 hours for drug treatment. The cell viability after peptide/drug treatment was assayed with the Cell Titer Glo (CTG) assay (Promega, Madison, Wis., USA).
A general note: In ATP-based viability assays light output follows the ATP content of the culture.

For a further experiment, the system named is SUM149PT cells. Put plainly: cells. It counts as cell-based, human. The following applies: for activity / IC50 as compared with the wt iPep624: Cell Titer Glo.
Excerpt: The EN1-iPeps and iPep controls were first tested in SUM149PT cells carrying high EN1 expression. Cells were first treated with a full-length 29-mer peptide (iPep624) comprising the N-terminal, less conserved amino acid sequences, the hexamotif, and the C-terminal tail. As a control, the inventors generated the iPep624ΔHEX in which the hexamotif was mutated from the wild type (wt) WPAWVY (SEQ ID NO: 13) to the GAAGAG (SEQ ID NO: 15) sequence. These mutations were expected to dramatically abolish the activity of the peptide. Both peptides were included in the culture medium of the basal cancer cells in increasing (0-100 μM) concentrations and incubated for 8 hours at 37° C. Treated cells were first analyzed using the Cell Titer Glo assay, which monitors metabolic viability. […] This calculated value of IC50 is in the range of concentrations observed with other peptides delivered with CPPs.
as §1

Experiment [2] deals with SUM149PT cells overexpressing the EN1 cDNA (SUM149PT-EN1). Description: Cell Titer Glo cell viability assay in SUM149PT cells overexpressing the EN1 cDNA. It counts as cell-based, human. The following applies: Homo sapiens. The procedure:
(§2) In the neural system it has been proposed that EN1 protects neurons from mitochondrial complex I insults. Likewise, the inventors investigated whether EN1 could play a similar role in the basal-like breast cancer cell lines. The EN1 cDNA was overexpressed in SUM149PT cells using a lentiviral vector, and the transduced cells were treated with increasing concentrations of rotenone, a mitochondrial complex I toxin, and taxol, a […].
(§3) Plasmids expressing the EN1 cDNA (Genecopoeia, vector EX-T1021-Lv07) or EN1 shRNAs (Open Biosystems, pLKO-EN1) were transfected with Gagpol-, VSVG-, and RSV-REV-coding plasmids in HEK 293T cells using Lipofectamine and Plus Reagent cationic lipids (Invitrogen, Carlsbad, Calif.) and transduction of breast cells was performed as described in Beltran, A. S. et al. Breast Cancer Res 13, R94 (2011).
as §1

For experiment [3], the system named is SUM149PT control (EGFP) transduced cells (SUM149PT-Control). Description: Cell Titer Glo cell viability assay in control transduced SUM149PT cells. It counts as cell-based. The following applies: Homo sapiens. The procedure: as §2, §3, §1
Setting [4] is: Homo sapiens, SUM149PT, 48 hours drug and 8 hours 500 nM iPep682, read-out: IC50 of drug with iPep682.
[5] abbreviates: Homo sapiens, SUM149PT, 48 hours of treatment, read-out: IC50 of drug alone.
[6] abbreviates: SUM149PT, drug treatment 72 hours, read-out: IC50 (cell viability), EN1 cDNA transduced cells.
Where [7] appears, read: SUM149PT, drug treatment 72 hours, read-out: IC50 (cell viability), control transduced cells.

Usually IC50 stands for the concentration that gives 50% inhibition.

With “KKKRKVTDSQQPLVGAAGAGCTRYSDRPS (SEQ ID NO: 18) (engineered from homo sapiens) [iPep624ΔHEX]”, the “cell viability of any of the breast cancer cell lines” value in experiment [1] is listed as “did not significantly affect cell viability”. Also, the cell viability result with SUM149PT cells (SUM149PT, 0-100 μM peptide, 8 hours) is on record as “did not show significant changes in cell viability”. Take `O=c1[nH]cc(F)c(=O)[nH]1` [5-FU, 5-Fluorouracil, reference compound]: the IC50 in the experiment on SUM149PT cells (setting [4]) came to 29.5 µM; in the experiment with SUM149PT cells (setting [5]), 610 µM.

Regarding “KKKRKVWPAWVYCTRYSDR (SEQ ID NO: 22) (homo sapiens) [iPep697, peptide lacking all the N-terminal residues upstream of the hexamotif]”, the “activity / IC50 as compared with the wt iPep624” value in the experiment on SUM149PT cells (SUM149PT) was “less active”. Turning to `C=C(C)[C@H]1Cc2c(ccc3c2O[C@@H]2COc4cc(OC)c(OC)cc4[C@@H]2C3=O)O1` [rotenone], the figures for the IC50 in experiment [2] (setting [6]) and in experiment [3] (setting [7]) were 19.6 µM and 1080 nM, respectively. Regarding “KKKRKVTDSQQPLVAPAWVYCTRYSDRPS (SEQ ID NO: 20) (engineered from homo sapiens) [iPep624W1ΔA, first tryptophan mutated to alanine]”, the “activity / IC50 as compared with the wt iPep624” value with SUM149PT cells (SUM149PT) is listed as “retained activity but significantly increased the IC50”.

On to “KKKRKVTDSQQPLVWPAAVYCTRYSDRPS (SEQ ID NO: 19) (engineered from homo sapiens) [iPep624W2ΔA, second tryptophan mutated to alanine]”, for which, in the experiment with SUM149PT cells (SUM149PT), the “activity / IC50 as compared with the wt iPep624” value is “retained activity but significantly increased the IC50”. `O=C(CC1NCCCC1O)Cn1cnc2cc(Br)c(Cl)cc2c1=O` (centres unmarked) [halofuginone]: in the experiment on SUM149PT cells (SUM149PT, single agent), the “breast cancer cell death” value is listed as “induced very potent breast cancer cell death”. In addition, the IC50 came to 0.00049 µM in experiment [2] (SUM149PT-EN1 cells, 500 nM iPep, 48 hours, read-out: IC50 of halofuginone in combination with iPep624) and 0.041 nM in experiment [3] (SUM149PT-Control cells, 500 nM iPep, 48 hours, read-out: IC50 of halofuginone in combination with iPep624). In the case of KKKRKVPLVWPAWVYCTRYSDRPS [iPep682], in the experiment on SUM149PT cells (8 h), the IC50 was found to be 12.5 µM. Regarding `CC(=O)O[C@H]1C(=O)[C@@]2(C)[C@H]([C@H](OC(=O)c3ccccc3)[C@]3(O)C[C@H](OC(=O)[C@H](O)[C@@H](NC(=O)c4ccccc4)c4ccccc4)C(C)=C1C3(C)C)[C@]1(OC(C)=O)CO[C@@H]1C[C@@H]2O` [taxol, reference compound], the concentration for half-maximal inhibition (IC50) came out at 0.049 µM in the experiment on SUM149PT cells (setting [4]), 7.6 µM in the experiment with SUM149PT cells (setting [5]), 47.8 µM in experiment [2] (setting [6]) and 7240 nM in experiment [3] (setting [7]).
